In general, pIC50 refers to the negative decadic logarithm of the IC50, by convention in mol/L. Read a low pIC50 as a high IC50.

This note sets out measurements from ChEMBL document CHEMBL4495565, “Cytopathic SARS-Cov2 screening on VERO-E6 cells in a large repurposing effort” (2020).

pIC50: −log10 of the molar value. “And” between values parts separate entries of the source, which are not always exact repeats. Equal entries are not always repeated.

A short description of series [1]: in vitro. As to conditions: chlorocebus sabaeus.
A short description of series [2]: in vitro. The conditions noted are these: chlorocebus sabaeus. The source holds these as a separate data set.
In another series the test system is SARS-CoV-2. In words: microbe, parasite or virus in culture. The class given is functional, organism-based, Chlorocebus sabaeus, Vero C1008.
[3] abbreviates: VERO-E6 cells (Vero C1008), uninfected, CC50.
The mark [4] stands for this setting: VERO-E6 cells, Selectivity index.
Where [5] appears, read: Severe acute respiratory syndrome coronavirus 2, Vero C1008, 48 h.

`Cc1cc(O)c2c(=O)c3c(O)cc(O)c4c5c(O)cc(O)c6c(=O)c7c(O)cc(C)c8c1c2c(c34)c(c78)c65` [HYPERICIN] yielded a CC50 at 48 h in the series “in vitro [1]” (setting [3]) of 1.31 µM. Further, the selectivity ratio in “in vitro [2]” (setting [4]) worked out at 5.24. This compound also gave a pIC50 in the series on SARS-CoV-2 (setting [5]) of 6.60.

`CC(C)n1nc(-c2cc3cc(O)ccc3[nH]2)c2c(N)ncnc21` showed a CC50 at 48 h in “in vitro [1]” (vero c1008, CC50) of 1.63 µM. Moreover, the selectivity ratio in “in vitro [2]” (vero c1008, Selectivity index) was 0.05. This compound gave a pIC50 in the series with SARS-CoV-2 (setting [5]) of less than 4.48.

In turn, `Cc1[nH]c(/C=C2\C(=O)Nc3cc(-c4ccccc4)ccc32)c(C)c1CCC(=O)O` displayed a CC50 at 48 h in “in vitro [1]” (setting [3]) of 0.03 µM. In addition, the selectivity ratio in “in vitro [2]” (setting [4]) was determined as 0.01. In the series with SARS-CoV-2 (setting [5]), this compound gave a pIC50 of 5.39.

With `CC(C)(C)C(=O)/C(=C/c1cccc([N+](=O)[O-])c1)n1cncn1`, in “in vitro [1]” (setting [3]), the CC50 at 48 h was 5.31 µM. Moreover, in “in vitro [2]” (setting [4]), the selectivity ratio is 1.23. The compound also gave a negative logarithm of the IC50 (pIC50) in the series on SARS-CoV-2 (setting [5]) of 5.36.

On to `CN(C)c1cccc(-c2c3c(=O)n(-c4ccccc4Cl)[nH]c3cc(=O)n2C)c1` [SETANAXIB], for which the CC50 at 48 h in the series “in vitro [1]” (vero c1008, CC50) was found to be 14.8 µM. In the series “in vitro [2]” (vero c1008, Selectivity index), the selectivity ratio was 1.26. The compound further gave a pIC50 in the series on SARS-CoV-2 (setting [5]) of 4.93.

As for `N[C@H]1CC[C@H](N[C@@H]2C[C@H]2c2ccccc2)CC1`, the CC50 at 48 h in the series “in vitro [1]” (setting [3]) was more than 33 µM. Further, the selectivity ratio in “in vitro [2]” (setting [4]) worked out at 1. Besides, in the series with SARS-CoV-2 (setting [5]), the pIC50 is less than 4.48.

In turn, `CNC(=O)Nc1ccc(-c2nc(N3CC4CCC(C3)O4)c3cnn(C4CCC5(CC4)OCCO5)c3n2)cc1` yielded a CC50 at 48 h in the series “in vitro [1]” (setting [3]) of 0.18 µM. Besides, the selectivity ratio in “in vitro [2]” (setting [4]) is 0.01. Besides, the pIC50 with SARS-CoV-2 (setting [5]) is 4.67.

The compound `O=c1cc(N2CCOCC2)oc2c(-c3cccc4c3sc3ccccc34)cccc12` yielded a CC50 at 48 h in “in vitro [1]” (setting [3]) of 0.58 µM. The selectivity ratio in “in vitro [2]” (setting [4]) was 0.15. The compound also gave a pIC50 in the series on SARS-CoV-2 (setting [5]) of 5.42.

For the compound `CC(C)(C)c1cc(C=C(C#N)C#N)cc(Br)c1O`, in the series “in vitro [1]” (setting [3]), the CC50 at 48 h was 10.4 µM. In addition, the selectivity ratio in the series “in vitro [2]” (setting [4]) amounted to 1.18. In the series on SARS-CoV-2 (setting [5]), this compound showed a pIC50 of 5.06.

In “in vitro [1]” (setting [3]), `Cc1nc2cnc3ccc(C#Cc4cccnc4)cc3c2n1-c1ccc(C(C)(C)C#N)cc1` showed a CC50 at 48 h of 0.11 µM. The selectivity ratio in “in vitro [2]” (setting [4]) is 1. The compound further had a pIC50 in the series on SARS-CoV-2 (setting [5]) of 6.96.

The compound `CC[C@H](CC#N)OC(=O)N[C@@H](C)c1cccc(NC(=O)Nc2ccc(-c3cnco3)c(OC)c2)c1` [AVN-944] registered a CC50 at 48 h in the series “in vitro [1]” (setting [3]) of 0.76 µM. For the same compound, in the series “in vitro [2]” (setting [4]), the selectivity ratio worked out at 0.67. The same compound gave a pIC50 with SARS-CoV-2 (setting [5]) of 5.94.

For `CC(C)(C)c1ccccc1Oc1ncccc1NC(=O)Nc1ccc(OC(F)(F)F)cc1`, the CC50 at 48 h in the series “in vitro [1]” (setting [3]) turned out to be 9.9 µM. The selectivity ratio in “in vitro [2]” (setting [4]) was 1.41. Moreover, in the series with SARS-CoV-2 (setting [5]), the pIC50 is 5.15.

In turn, `COc1cc(/C=C2\SC(=O)NC2=O)ccc1Oc1ccc(C#N)cc1C(F)(F)F` displayed a CC50 at 48 h in “in vitro [1]” (setting [3]) of 3.33 µM. This compound had a pIC50 in the series on SARS-CoV-2 (setting [5]) of less than 4.48.

In “in vitro [1]” (setting [3]), `CC1=C(/C=C/C(C)=C/C=C/C(C)=C/C(=O)Nc2ccc(O)cc2)C(C)(C)CCC1` [FENRETINIDE] gave a CC50 at 48 h of 10.5 µM. This compound had a negative-log IC50 (pIC50) with SARS-CoV-2 (setting [5]) of less than 4.48.

In “in vitro [1]” (setting [3]), `CCCCOCCOc1ccc(-c2ccc3c(c2)/C=C(/C(=O)Nc2ccc([S@@+]([O-])Cc4cncn4CCC)cc2)CCCN3CC(C)C)cc1` [CENICRIVIROC] gave a CC50 at 48 h of 11.7 µM. The compound also gave a pIC50 in the series on SARS-CoV-2 (setting [5]) of less than 4.48.

In the series “in vitro [1]” (setting [3]), `C[C@H]1Cc2c([nH]c3cc(Cl)c(F)cc23)[C@@]2(N1)C(=O)Nc1ccc(Cl)cc12` [CIPARGAMIN] displayed a CC50 at 48 h of more than 33 µM. This compound also showed a negative-log IC50 (pIC50) in the series on SARS-CoV-2 (setting [5]) of less than 4.48.

On to `O=C(Nc1ccc([N+](=O)[O-])cc1Cl)c1cc(Cl)ccc1O` [NICLOSAMIDE], for which the CC50 at 48 h in the series “in vitro [1]” (vero c1008, CC50) was more than 33 µM. In addition, the pIC50 in the series on SARS-CoV-2 (vero c1008) is 5.39 and < 4.48.

`Cc1ccc(Oc2nc3cc(-c4ccc(-c5ccccc5)cc4)c(Cl)cc3[nH]2)cc1C(=O)O` yielded a CC50 at 48 h in “in vitro [1]” (setting [3]) of 0.03 µM. In the series with SARS-CoV-2 (setting [5]), the pIC50 was less than 4.48.

Turning to `COC(=O)c1ccccc1-c1c2ccc(=N)cc-2oc2cc(N)ccc12` [RHODAMINE123], the CC50 at 48 h in “in vitro [1]” (setting [3]) is more than 33 µM. The compound further had a pIC50 in the series with SARS-CoV-2 (setting [5]) of 6.10.

Compound `c1ccc(-c2ccc(CNc3nc(-c4ccccn4)nnc3-c3ccccc3)cc2)cc1` gave a CC50 at 48 h in “in vitro [1]” (setting [3]) of 0.02 µM. Also, the pIC50 with SARS-CoV-2 (setting [5]) was 4.50.
